Patent US20260115205A1, “ON DEMAND FEMALE CONTRACEPTIVE” (priority 2021, published 2026)
“And” between values parts separate entries of the source, which are not always exact repeats. Equal values may be shown once. Read-outs that look alike come from different tables or passages of the source.

Legend:
women [1] = conditions: emergency contraception; cited from earlier work
[2] = cited from earlier work
women [3] = conditions: cited from earlier work; for serious adverse effects/events: general statement
[4] = system: normal menstruating women; test: Pilot study of MEL 15 mg for 5 days in 3 normal menstruating women; format: in vivo, human
Description: A pilot study was performed using MEL 15 mg for 5 days in 3 normal menstruating women with a control no treatment but monitored cycle and a treatment cycle. Treatment was initiated when the participant was within one day of anticipated LH surge based on the control cycle.

[5] = 1.5 mg single dose, n=1359 women, Plan B One Step label
[6] = 15 mg, 12 week rheumatoid arthritis placebo controlled trial, Mobic label
[7] = oral 15 mg for 5 days in normal women

Q: With `CC(=O)O[C@]1(C(C)=O)CC[C@H]2[C@@H]3CCC4=CC(=O)CCC4=C3[C@@H](c3ccc(N(C)C)cc3)C[C@@]21C` [ulipristal acetate] as the compound, how does the “preventing pregnancy as interval from unprotected intercourse to use increases” value (women [1]) read?
A: superior to LNG

Q: With `C#C[C@]1(O)CC[C@H]2[C@@H]3CCC4=CC(=O)CC[C@@H]4[C@H]3CC[C@@]21CC` [Levonorgestrel, levonorgestrel] as the compound, how does the “mean peak blood level” value ([2]; 1.5 mg, immunoassay methodology) read?
A: 18 ng/mL

Q: And the “absorption from the gastrointestinal tract” value ([2]; in vivo)?
A: almost completely absorbed

Q: And the enzyme principally metabolizing ([2]; in vivo)?
A: CYP3A4

Q: What about the estimated serum half-life ([2]; in vivo) of the same compound?
A: 27.5 h

Q: What about the “mean peak serum level” value ([2]; two different laboratories, liquid chromatography and tandem mass spectrometry) of the same compound?
A: 18.3 ng/mL and 10.2 ng/mL

Q: What about the breast tenderness (women [3]; [5]) of the same compound?
A: 8.2%

Q: And the “delay of menses >7 days” value (women [3]; [5])?
A: 4.5%

Q: What about the dizziness (women [3]; [5]) of the same compound?
A: 9.6%

Q: And the fatigue (women [3]; [5])?
A: 13.3%

Q: What about the headache (women [3]; [5]) of the same compound?
A: 10.3%

Q: What about the heavy menstrual bleeding (women [3]; [5]) of the same compound?
A: 30.9%

Q: What about the lower abdominal pain (women [3]; [5]) of the same compound?
A: 13.3%

Q: What about the nausea (women [3]; [5]) of the same compound?
A: 13.7%

Q: What about the serious adverse effects/events (women [3]; listed as LNG) of the same compound?
A: have not been reported

Q: Which “effect on the LH surge dynamics” value [4] does the source give for `Cc1cnc(NC(=O)C2=C(O)c3ccccc3S(=O)(=O)N2C)s1` [Meloxicam, meloxicam] here?
A: no effect

Q: And the “time to steady state concentration” value ([2]; 15 mg daily)?
A: three to five

Q: And the “time of peak serum levels” value ([2]; depending upon food intake)?
A: five or six

Q: What about the enzyme principally metabolizing ([2]; in vivo) of the same compound?
A: CYP2C9

Q: What about the “incidence of adverse events” value (women [3]; 15 mg taken daily for 18 days) of the same compound?
A: 33.7%

Q: What about the serious adverse events (women [3]; 15 mg taken daily for 18 days) of the same compound?
A: no serious adverse events reported

Q: And the abdominal pain (women [3]; [6])?
A: 2.6%

Q: And the dizziness (women [3]; [6])?
A: 3.8%

Q: And the dyspepsia (women [3]; [6])?
A: 4.5%

Q: What about the edema (women [3]; [6]) of the same compound?
A: 4.5%

Q: And the headache (women [3]; [6])?
A: 8.3%

Q: What about the nausea (women [3]; [6]) of the same compound?
A: 3.8%

Q: What about the skin rash (women [3]; [6]) of the same compound?
A: 0.6%

Q: What about the serious adverse effects/events (women [3]) of the same compound?
A: rare

Q: And the adverse events (women [3]; [7])?
A: 27.3%

Q: What about the bloating (women [3]; [7]) of the same compound?
A: 4.5%

Q: And the hot flushes (women [3]; [7])?
A: 9.0%

Q: What about the low abdominal pain (women [3]; [7]) of the same compound?
A: 13.6%
